{"source": "patent US20140272949A1", "about": "“Methods for Fully Segregating Recombinant Marine Cyanobacteria” (ALGENOL BIOFUELS INC., priority 2013, published 2014)", "tested_on": "PCC7002:pAB125 clones", "experiment": "Growth on low salt spectinomycin segregation plates", "assay_type": "cell-based, Synechococcus sp. strain PCC 7002", "method": "1 mL of the culture was washed once in BG-11 (2.500×g, 10 min spin) and streaked for single colonies on low salt media (BG-11+vB12) plates with various spectinomycin concentrations (sp15, 30, 60, 120, 240, 300, 360, and 500 μg/mL). These segregation plates were incubated at room temperature with low light overnight and then at 37° C. with continuous light or with a 12 h/12 h light/dark cycle for approximately 2 weeks."}
{"compound": "CN[C@@H]1[C@H](O)[C@H](NC)[C@H]2O[C@@]3(O)C(=O)C[C@@H](C)O[C@H]3O[C@@H]2[C@H]1O", "note": "[spectinomycin]", "values": [{"measurement": "growth on low salt plates", "setting": "240 and 300 mg/L of spectinomycin, BG-11+vB12, about 2 weeks", "result": "single colonies formed"}, {"measurement": "growth on low salt plates", "setting": "higher spectinomycin concentrations (360, 500 μg/mL), BG-11+vB12", "result": "No colonies were found"}, {"measurement": "growth on low salt plates", "setting": "spectinomycin at 15 to 120 mg/L, BG-11+vB12, about 2 weeks", "result": "abundant growth"}]}
